Experimental findings from PubChem BioAssay (NCI) are described below.

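96-well plates; 48 h exposure; 5 concentrations. Endpoints by linear interpolation between flanking doses. Not reached: highest tested concentration assigned. Here, GI50 denotes the concentration required for 50% inhibition of growth. Definition used: TGI = concentration required for complete inhibition of growth.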

Among the test systems are NCI-H226 lung; SF-295 CNS; HT29 colon; HOP-18 NSCLC; UACC-257 melanoma; OVCAR-5 ovarian; A498 renal; DMS 273 small cell lung; HCT-15 colon; IGROV1 ovarian.
What all share (assay): inhibition of tumour cell growth, NCI panel, 48 h

Take `Cc1ccccc1NC(=O)C(=O)C(C#N)c1ccccc1C` (configuration not stated): the TGI with NCI-H226 lung, with SF-295 CNS, in the test with HT29 colon, in the test with HOP-18 NSCLC, in the test on UACC-257 melanoma and in the test on OVCAR-5 ovarian was over 100 µM each time. The TGI in the test on A498 renal, in the test with DMS 273 small cell lung, in the test on HCT-15 colon and with IGROV1 ovarian was over 100 µM in each case.

With `C=C1CCC2[C@@H](CCC3[C@]2(C)CCC[C@]3(C)C(=O)OC)C1CC=O` (some centres not stated), the TGI with NCI-H226 lung was 37.2 µM; in the test on SF-295 CNS it was 31.3 µM; with HT29 colon, 30.8 µM; with HOP-18 NSCLC, 29 µM; in the test on UACC-257 melanoma, 31 µM; in the test with OVCAR-5 ovarian it was 31.8 µM. Further, the TGI is 31.9 µM in the test with A498 renal, 40.7 µM with DMS 273 small cell lung, 43.6 µM in the test with HCT-15 colon and 38.6 µM with IGROV1 ovarian. Moreover, the values for the GI50 with SF-295 CNS, in the test with OVCAR-5 ovarian and in the test with A498 renal were 16.8 µM, 16.7 µM and 17.2 µM, respectively.

As to `N#CC(C#N)c1ccc(C(=O)N2CCC[C@H]2CO)cc1`, the TGI with SF-295 CNS, with HT29 colon, in the test on HOP-18 NSCLC, in the test on UACC-257 melanoma, in the test on OVCAR-5 ovarian and in the test with DMS 273 small cell lung was over 100 µM in each case. Moreover, the TGI with HCT-15 colon and with IGROV1 ovarian was over 100 µM throughout.

`Cc1cc(C)nc(NS(=O)(=O)c2ccc(Nc3c4ccccc4nc4c(C(=O)Nc5ccc(S(=O)(=O)N=C(N)N)cc5)cccc34)cc2)n1`: the TGI in the test on HT29 colon, in the test with HOP-18 NSCLC, in the test on UACC-257 melanoma, in the test with OVCAR-5 ovarian, in the test with A498 renal and in the test on DMS 273 small cell lung was over 100 µM each time. Also, the TGI with HCT-15 colon and in the test on IGROV1 ovarian was over 100 µM throughout.

As to `O=C(O)/C=C/c1nc2ccccc2c(=O)o1`, the TGI with NCI-H226 lung, in the test on SF-295 CNS, with HT29 colon, with HOP-18 NSCLC, in the test on DMS 273 small cell lung and with HCT-15 colon was over 100 µM throughout. Also, the TGI with IGROV1 ovarian is over 100 µM.

As for `CCOC(=O)/C(C#N)=C(O)/C(=C\c1ccc(Br)cc1)NC(=O)c1ccccc1`, the TGI in the test with NCI-H226 lung, in the test on SF-295 CNS, with HT29 colon, with HOP-18 NSCLC, with UACC-257 melanoma and with OVCAR-5 ovarian was over 100 µM in each case. The TGI with A498 renal, in the test on DMS 273 small cell lung, with HCT-15 colon and in the test with IGROV1 ovarian was over 100 µM in each case.

As to `COCCNC(=O)C1C(=O)C(=O)N(CCOC)C1=O` (configuration not stated), the TGI in the test with NCI-H226 lung, with SF-295 CNS, in the test on HT29 colon, in the test on HOP-18 NSCLC, with UACC-257 melanoma and in the test on OVCAR-5 ovarian was over 100 µM each time. In addition, the TGI in the test with A498 renal, in the test with DMS 273 small cell lung, in the test on HCT-15 colon and in the test with IGROV1 ovarian was over 100 µM in each case.

Regarding `CC(C)=CC(=O)N(C)C1C2CN3CCC(O2)C13` (configuration not stated), the TGI in the test with NCI-H226 lung, in the test on SF-295 CNS, with HT29 colon, in the test with HOP-18 NSCLC, in the test with UACC-257 melanoma and in the test on OVCAR-5 ovarian was over 100 µM in each case. Besides, the TGI in the test with A498 renal, with DMS 273 small cell lung, in the test on HCT-15 colon and in the test on IGROV1 ovarian was over 100 µM each time.

Take `COC1C(N)C(OC2C(Oc3cccc4c(O)c5c(=O)oc6ccc(C)c7c(=O)oc(c34)c5c67)OC(C)C(O)C2(C)O)OC(C)C1O` (configuration not stated): the TGI in the test on NCI-H226 lung is 0.169 µM; with SF-295 CNS, 1.21 µM; in the test on HT29 colon, 0.436 µM; with HOP-18 NSCLC, 3.08 µM; with UACC-257 melanoma it was 0.277 µM; in the test with OVCAR-5 ovarian, 1.45 µM. Further, the TGI in the test with A498 renal was 0.155 µM; in the test on DMS 273 small cell lung, 0.399 µM; in the test on HCT-15 colon, 7.55 µM; in the test with IGROV1 ovarian, 0.132 µM.

With `CCCCCCCCCCCCC(Br)C(=O)NCC(N)=O` (configuration not stated), the TGI in the test with NCI-H226 lung amounted to 8.79 µM; in the test on SF-295 CNS, 29.5 µM; in the test on HT29 colon it was 36 µM; with HOP-18 NSCLC, 28.2 µM; in the test on UACC-257 melanoma it was 24.7 µM; in the test with OVCAR-5 ovarian, 57.3 µM. Moreover, the TGI in the test with A498 renal is 26.7 µM; in the test with DMS 273 small cell lung, 25 µM; in the test with HCT-15 colon, 28.7 µM; with IGROV1 ovarian, 29.8 µM.

Take `CCC1(O)C(=O)OCc2c1cc1n(c2=O)Cc2cc3c(NC(=O)CN)cccc3nc2-1` (configuration not stated): the GI50 with NCI-H226 lung is 0.385 µM; in the test with SF-295 CNS it was 0.368 µM; with HOP-18 NSCLC, 1.02 µM; in the test with UACC-257 melanoma, 2.09 µM; with OVCAR-5 ovarian, 3.27 µM; in the test with A498 renal, 0.883 µM. Besides, the GI50 is 0.0963 µM in the test on DMS 273 small cell lung, 5.22 µM in the test on HCT-15 colon and 3.9 µM in the test with IGROV1 ovarian. Besides, the TGI with NCI-H226 lung is 4.29 µM; in the test with SF-295 CNS, 28 µM; with HT29 colon, over 79.3 µM; in the test on HOP-18 NSCLC, over 24.3 µM; with UACC-257 melanoma it was 24.3 µM; in the test with OVCAR-5 ovarian it was 63.9 µM. Also, the TGI in the test with A498 renal is 5.65 µM; with DMS 273 small cell lung it was 1.83 µM; in the test with HCT-15 colon, over 100 µM; in the test with IGROV1 ovarian, 73.4 µM.

As for `NC(=O)NNC(=O)NC12CC3CC(CC(C3)C1)C2`, the TGI with NCI-H226 lung, in the test with SF-295 CNS, with HT29 colon, in the test with HOP-18 NSCLC, in the test with UACC-257 melanoma and in the test with OVCAR-5 ovarian was over 100 µM in each case. Moreover, the TGI in the test with A498 renal, with DMS 273 small cell lung, in the test on HCT-15 colon and with IGROV1 ovarian was over 100 µM each time.

Regarding `O=c1[nH]cc(F)c(=O)n1C1OC(CO)C(O)C1O` (configuration not stated), the TGI in the test with NCI-H226 lung, in the test on SF-295 CNS, with HT29 colon, in the test with HOP-18 NSCLC, in the test on UACC-257 melanoma and in the test on OVCAR-5 ovarian was over 100 µM in each case. The TGI in the test with DMS 273 small cell lung and in the test with HCT-15 colon was over 100 µM throughout.

For `CC(=O)OCCOCNC(=S)N/N=C/c1cc(Br)cs1`, the TGI in the test with NCI-H226 lung, in the test on SF-295 CNS, in the test on HT29 colon, with HOP-18 NSCLC, in the test with UACC-257 melanoma and in the test on OVCAR-5 ovarian was over 100 µM each time. Further, the TGI in the test with A498 renal, with DMS 273 small cell lung, in the test with HCT-15 colon and in the test with IGROV1 ovarian was over 100 µM each time.

Regarding `COCOCC/C=C/C=O`, the TGI in the test on SF-295 CNS, in the test on HT29 colon, with HOP-18 NSCLC, with UACC-257 melanoma, in the test on OVCAR-5 ovarian and with A498 renal was over 100 µM in each case. Moreover, the TGI with HCT-15 colon and in the test on IGROV1 ovarian was over 100 µM throughout.

For `Cc1ccc(S(=O)(=O)N/N=C(/CC(=O)c2c(C)n([O-])c3ccccc3[n+]2=O)C(=O)Nc2ccccc2C)cc1`, the TGI in the test on NCI-H226 lung, in the test on SF-295 CNS, in the test with HT29 colon, with HOP-18 NSCLC, in the test with UACC-257 melanoma and with OVCAR-5 ovarian was over 100 µM in each case. In addition, the TGI with A498 renal, in the test on DMS 273 small cell lung, in the test with HCT-15 colon and with IGROV1 ovarian was over 100 µM in each case.

`Cc1ccc(C)c(N2C(=O)C(=O)C(c3nc4ccccc4s3)/C(=N/NC(=O)NN)C2=O)c1` (configuration not stated): the TGI in the test on NCI-H226 lung, in the test on SF-295 CNS, in the test on HT29 colon, in the test on HOP-18 NSCLC, with UACC-257 melanoma and in the test on A498 renal was over 100 µM throughout. The TGI in the test with DMS 273 small cell lung, in the test on HCT-15 colon and with IGROV1 ovarian was over 100 µM in each case.

With `COc1ccc(-c2cc(C(=O)Nc3ccc(C)c(C)c3)nc(NC#N)n2)cc1`, the TGI in the test with HT29 colon, with HOP-18 NSCLC, in the test on UACC-257 melanoma, in the test on OVCAR-5 ovarian, with A498 renal and in the test with DMS 273 small cell lung was over 100 µM throughout. Besides, the TGI in the test on HCT-15 colon and in the test on IGROV1 ovarian was over 100 µM in each case.

On to `NC(=O)c1csc(C2OC(COP(=O)(O)CP(=O)(O)OCC3OC(n4cnc5c(N)ncnc54)C(O)C3O)C(O)C2O)n1` (configuration not stated), for which the TGI in the test on NCI-H226 lung, with SF-295 CNS, in the test on HT29 colon, in the test with HOP-18 NSCLC, in the test on UACC-257 melanoma and with OVCAR-5 ovarian was over 100 µM each time. In addition, the TGI in the test with A498 renal, with DMS 273 small cell lung, in the test with HCT-15 colon and in the test on IGROV1 ovarian was over 100 µM in each case.

For `CC1(C)CC(=O)C(/C(=N/NC(=S)NN)C(=O)Nc2nc3ccc([N+](=O)[O-])cc3s2)C(=O)C1`, the TGI with NCI-H226 lung, in the test with SF-295 CNS, with HT29 colon, with HOP-18 NSCLC, with UACC-257 melanoma and in the test with OVCAR-5 ovarian was over 100 µM each time. For the same compound, the TGI in the test with A498 renal, with HCT-15 colon and with IGROV1 ovarian was over 100 µM throughout.

`C[CH2][Sn]([CH2]C)([O]C(=O)c1ccccc1OC)[O][Sn]([CH2]C)([CH2]C)[O]C(=O)c1ccccc1OC`: the GI50 in the test on NCI-H226 lung, in the test on SF-295 CNS, in the test on HT29 colon, with HOP-18 NSCLC, with UACC-257 melanoma and with OVCAR-5 ovarian was over 100 µM throughout. Further, the GI50 was 44.4 µM in the test on A498 renal, over 100 µM with DMS 273 small cell lung, over 100 µM in the test with HCT-15 colon and over 100 µM in the test on IGROV1 ovarian. For the same compound, the TGI with NCI-H226 lung, in the test with SF-295 CNS, in the test with HT29 colon, with HOP-18 NSCLC, in the test on UACC-257 melanoma and with OVCAR-5 ovarian was over 100 µM throughout. For the same compound, the TGI in the test with A498 renal, in the test on DMS 273 small cell lung, in the test with HCT-15 colon and in the test on IGROV1 ovarian was over 100 µM each time.

As to `COc1ccc(/C=C2\CCC(C)(CN(C)C)C2=O)cc1OC` (configuration not stated), the TGI in the test on NCI-H226 lung, with SF-295 CNS, in the test with HT29 colon, in the test with HOP-18 NSCLC, in the test on UACC-257 melanoma and in the test with OVCAR-5 ovarian was over 100 µM in each case. For the same compound, the TGI in the test with A498 renal, in the test on DMS 273 small cell lung, in the test with HCT-15 colon and in the test on IGROV1 ovarian was over 100 µM each time.

For `O=C1Nc2ccccc2N=CC1NC(=O)C(c1ccccc1)c1ccccc1` (configuration not stated), the TGI in the test with NCI-H226 lung, in the test on SF-295 CNS, with HT29 colon, in the test with HOP-18 NSCLC, in the test on UACC-257 melanoma and with OVCAR-5 ovarian was over 100 µM each time. For the same compound, the TGI in the test on A498 renal, in the test with DMS 273 small cell lung, with HCT-15 colon and with IGROV1 ovarian was over 100 µM each time.
